Source: US20260325661A1, “ANTIBODY-CONJUGATED IMMUNO-ACTIVATING SMALL MOLECULE COMPOUND, AND USE” (SHENZHEN CONJUGENIX PHARMACEUTICAL TECHNOLOGY CO., LTD, priority 2023, published 2026)
Where two headings read alike, the source gives them in different places.

Tested on: human peripheral blood mononuclear cells (PBMCs)
Experiment: ELISA assay of immunocyte activator: induction of IFN-γ in human PBMCs
Assay type: cell-based
Settings: 24 h, 37 °C, read-out: EC50 IFN-γ ratio (inducing human PBMCs to produce IFN-γ)
Protocol: The immune activity of each compound is represented by the function of inducing human peripheral blood mononuclear cells (PBMCs) to produce the immune cytokine IFN-γ by, and the EC50 values thereof are shown in Table 3.
• 1) Peripheral blood samples from healthy human volunteer were collected into heparin anticoagulant tubes to reach 5 mL of fresh blood, and PBS was added at a ratio of 1:1 to dilute the blood (2 mL+2 mL in conventional blood collection tubes). • 2) 5 mL of lymphocyte separation medium was put in a 15 mL sterile centrifuge tube for use. • 3) The diluted blood was aspirated and slowly added from 1 cm above the separation medium along the tube wall, so that the diluted blood overlaid the separation medium and formed a distinct interface therewith. • 4) The centrifuge tube was centrifuged at 2000 rpm at room temperature for 20 min. Now five layers formed in the centrifuge tube: the top layer was plasma layer, and the layer between the plasma layer and the lymphocyte separation medium was the lymphocyte layer as a white film. • 5) The mononuclear cell layer as a white film in the middle was aspirated carefully and mononuclear cells were aspirated as many as possible. The mononuclear cells were washed by more than 5 volumes of PBS twice, and each time, the mononuclear cells were centrifuged at 1500 rpm for 10 min. • 6) The supernatant was removed, then 1 mL of 1640 medium was added and mixed uniformly. A small amount of the mixture was taken for cell counting.
The prepared PBMCs were plated in a 96-well plate (Costar, 3894) (2×10^5 cells per well). Each compound in Table 3 was taken and added into the wells with plated cells at ten concentrations with uniform gradient distribution (0.0001-10 μM, diluted with […] medium containing […]).

[1] = Note a: sample pretreated with human liver microsomal enzyme, 2 h
[2] = Homo sapiens, PBMC, no pretreatment marked
[3] = Homo sapiens, PBMC, Note a: sample pretreated with human liver microsomal enzyme, 2 h

SMILES	EC50 [2] [nM]	also measured
C=C(CN1CCC(Cn2c(=O)n(C(=O)NCCNC(=O)OCc3ccc(NC(=O)[C@H](CCCNC(N)=O)NC(=O)[C@@H](NC(=O)CCOCCOCCOCCOCCNC(=O)CCC(=O)N4Cc5ccccc5C#Cc5ccccc54)C(C)C)cc3)c3c(N)nc(O[C@@H](C)CCC)nc32)CC1)C(=O)OCC [Compound K51]	–	EC50 [1]: 2 nM
C=C(CN1CCC(Cn2c(=O)n(C(=O)NCCNC(=O)OCc3ccc(NC(=O)[C@H](CCCNC(N)=O)NC(=O)[C@@H](NC(=O)CCOCCOCCOCCOCCNC(=O)CCC(=O)N4Cc5ccccc5C#Cc5ccccc54)C(C)C)cc3)c3c(N)nc(OCCCC)nc32)CC1)C(=O)OCC [Compound K52]	–	EC50 [1]: 120 nM
C=C(CN1CCC(n2cc(Cn3c(=O)[nH]c4c(N)nc(O[C@@H](C)CCC)nc43)nn2)CC1)C(=O)NCCOCCOCCOCCOCCNC(=O)CCC(=O)N1Cc2ccccc2C#Cc2ccccc21 [Compound K54]	18	–
C=C(CN1CCC(n2cc(Cn3c(=O)n(COC(=O)OCCOCCOCCOCCNC(=O)CCC(=O)N4Cc5ccccc5C#Cc5ccccc54)c4c(N)nc(O[C@@H](C)CCC)nc43)nn2)CC1)C(=O)OCC [Compound K55]	–	EC50 [1]: 21 nM
CCC[C@H](C)Oc1nc(N)c2c(n1)n(CC1CCN(C(=O)/C=C/C(=O)c3ccc(OC)cc3)CC1)c(=O)n2C(=O)NCCNC(=O)OCc1ccc(NC(=O)[C@H](CCCNC(N)=O)NC(=O)[C@@H](NC(=O)CCOCCOCCOCCOCCNC(=O)CCC(=O)N2Cc3ccccc3C#Cc3ccccc32)C(C)C)cc1 [Compound K57]	–	EC50 [1]: 3 nM
CCCCOc1nc(N)c2c(n1)n(CC1CCN(C(=O)/C=C/C(=O)c3ccc(OC)cc3)CC1)c(=O)n2C(=O)NCCNC(=O)OCc1ccc(NC(=O)[C@H](CCCNC(N)=O)NC(=O)[C@@H](NC(=O)CCOCCOCCOCCOCCNC(=O)CCC(=O)N2Cc3ccccc3C#Cc3ccccc32)C(C)C)cc1 [Compound K58]	–	EC50 [1]: 9 nM
C=C(CC)C(=O)c1ccc(OCC(=O)NCc2ccc(Cn3c(=O)n(COC(=O)OCc4ccc(NC(=O)[C@H](C)NC(=O)[C@@H](NC(=O)CCOCCOCCOCCOCCNC(=O)CCC(=O)N5Cc6ccccc6C#Cc6ccccc65)C(C)C)cc4)c4c(N)nc(OCCOC)nc43)cc2)c(Cl)c1Cl [Compound K60]	–	EC50 [1]: 90 nM
C=C(CN1CCN(C(=O)n2c(=O)n(CCCc3cn(CCOCCOCCOCC(=O)OCC)nn3)c3nc(OCCCC)nc(N)c32)CC1)C(=O)NCCOCCOCCOCCOCCNC(=O)CCC(=O)N1Cc2ccccc2C#Cc2ccccc21 [Compound K61]	–	EC50 (Homo sapiens, PBMC, pH 6, 24 h, Note b: sample pretreated with equimolar glutathione, PBS pH 6, 37 °C): 2 nM
C=C(CN(C[C@H](C)c1ccc(-c2c(O)cc(C)c3[nH]c(=O)c4sccc4c23)cc1)C(=O)OCc1ccc(NC(=O)[C@H](CCCNC(N)=O)NC(=O)[C@@H](NC(=O)CCOCCOCCOCCOCCN2C(=O)C=CC2=O)C(C)C)cc1)C(=O)N1CCC(n2cc(Cn3c(=O)n(C(=O)N4CCN(C)CC4)c4c(N)nc(OCCCC)nc43)nn2)CC1 [Compound K62]	–	EC50 [3]: 10 nM
CCC[C@H](C)Oc1nc(N)c2c(n1)n(CC1CC[N+]([O-])(CCO)CC1)c(=O)n2C(=O)NCCNC(=O)OCc1ccc(NC(=O)[C@H](CCCNC(N)=O)NC(=O)[C@@H](NC(=O)CCOCCOCCOCCOCCNC(=O)CCC(=O)N2Cc3ccccc3C#Cc3ccccc32)C(C)C)cc1 (stereo partly shown) [Compound K63]	–	EC50 [3]: 80 nM
C=C(CN(CCCCc1cn(CCOCCOCCOCCn2cc(Cn3c(=O)[nH]c4c(N)nc(OCCCC)nc43)nn2)nn1)C[C@H](C)c1ccc(-c2c(O)cc(C)c3[nH]c(=O)c4sccc4c23)cc1)C(=O)NCCCCCCNC(=O)[C@@H](CCCCn1cc(COCCOCCOCCN=C=S)nn1)NC(=O)CCC(=O)NCc1ccc(Cn2c(=O)[nH]c3c(N)nc(OCCOC)nc32)cc1 [Compound K64]	10	–
C=CCNC(=S)NCC(=O)n1c(=O)n(Cc2ccc(CNC(=O)CCc3cn(CCOCCOCCOCCNC(=O)CCN4C(=O)C=CC4=O)nn3)cc2)c2nc(OCCOC)nc(N)c21 [Compound K67]	–	EC50 (Homo sapiens, PBMC, pH 5, 24 h, Note d: sample pretreated by hydrolysis, acetate buffer pH 5, 37 °C, 72 h): 260 nM
C#CCn1c(=O)[nH]c2c(N)nc(OCCCC)nc21 [GY100, reference compound]	110	–
C#CCCCn1c(=O)[nH]c2c(N)nc(OCCCC)nc21 [GY121, reference compound]	50	–
CCCCOc1nc(N)c2nc(O)n(Cc3cn(CCOCCOCCOCCN=[N+]=[N-])nn3)c2n1 [GY155, reference compound]	–	EC50 (no pretreatment marked): 330 nM
CCC[C@H](C)Oc1nc(N)c2[nH]c(=O)n(Cc3cn(C4CCNCC4)nn3)c2n1 [GY228]	54	–
C=C(CN1CCC(n2cc(Cn3c(=O)[nH]c4c(N)nc(O[C@@H](C)CCC)nc43)nn2)CC1)C(=O)OCC [GY229]	28	–
C=C(CN1CCC(n2cc(Cn3c(=O)[nH]c4c(N)nc(O[C@@H](C)CCC)nc43)nn2)CC1)C(=O)O [GY300]	31	–
CCCCOc1nc(N)c2[nH]c(=O)n(CCCc3cn(CCOCCOCCOCC(=O)OCC)nn3)c2n1 [GY1401]	2	–
CCCCOc1nc(N)c2[nH]c(=O)n(Cc3ccc(NC(=S)Nc4sc5c(c4C(=O)OCC)CCCC5)cc3)c2n1 [KJ005]	370	–

SMILES	EC50 [2] [nM]	also measured
CCCCOc1nc(N)c2[nH]c(=O)n(Cc3ccc(NC(=S)Nc4sc5c(c4C(=O)O)CCCC5)cc3)c2n1 [KJ006]	290	–
CCC[C@H](C)Oc1nc(N)c2[nH]c(=O)n(CC3CCNCC3)c2n1 [KJ-1b, reference compound]	18	–
CCC[C@H](C)Oc1nc(N)c2[nH]c(=O)n(CC3CCN(CCO)CC3)c2n1 [KJ-3b, reference compound]	210	–
CCC[C@H](C)Oc1nc(N)c2[nH]c(=O)n(CC3CC[N+]([O-])(CCO)CC3)c2n1 (stereo partly shown) [KJ-3b-O]	90	–
COCCOc1nc(N)c2[nH]c(=O)n(Cc3ccc(CNC(=O)CCc4cn(CCOCCOCCOCCNC(=O)CCN5C(=O)C=CC5=O)nn4)cc3)c2n1 [KJ-008]	7	–
CCCCOc1nc(N)c2[nH]c(=O)n(Cc3cn(CCN)nn3)c2n1 [KJ-032]	110	–
C=C(CN1CCC(Cn2c(=O)[nH]c3c(N)nc(O[C@@H](C)CCC)nc32)CC1)C(=O)OCC [KJ-096]	3	–
C=C(CN1CCC(Cn2c(=O)[nH]c3c(N)nc(O[C@@H](C)CCC)nc32)CC1)C(=O)O [KJ-097]	1	–
C=C(CN1CCC(Cn2c(=O)[nH]c3c(N)nc(OCCCC)nc32)CC1)C(=O)OCC [KJ-098]	310	–
C=C(CN1CCC(Cn2c(=O)[nH]c3c(N)nc(OCCCC)nc32)CC1)C(=O)O [KJ-099]	420	–
CCC[C@H](C)Oc1nc(N)c2[nH]c(=O)n(CC3CCN(C(=O)/C=C/C(=O)c4ccc(OC)cc4)CC3)c2n1 [KJ-102]	3	–
CCCCOc1nc(N)c2[nH]c(=O)n(CC3CCN(C(=O)/C=C/C(=O)c4ccc(OC)cc4)CC3)c2n1 [KJ-104]	9	–
C=C(CC(=O)O)C(=O)NCc1ccc(Cn2c(=O)[nH]c3c(N)nc(OCCOC)nc32)cc1 [KJ-138]	50	–
CCCCOc1nc(N)c2[nH]cc(Cc3ccc4c(c3)CNCC4)c2n1 [PMQ-1, reference compound]	320	–
COCCOc1nc(N)c2[nH]c(=O)n(Cc3ccc(CNC(=O)CCC(=O)O)cc3)c2n1 [SZU-101, reference compound]	–	EC50 (no pretreatment marked): 500 nM
C=C(CC)C(=O)c1ccc(OCC(=O)NCc2ccc(Cn3c(=O)[nH]c4c(N)nc(OCCOC)nc43)cc2)c(Cl)c1Cl [SZU-103, reference compound]	100	–
C#CCCCCC(NC(=O)CCC(=O)NCc1ccc(Cn2c(=O)[nH]c3c(N)nc(OCCOC)nc32)cc1)C(=O)O (stereo not shown) [SZU-115, reference compound]	–	EC50 (no pretreatment marked, listed as GY115, 1440 min): 300 nM
C#CCCC(=O)NCc1ccc(Cn2c(=O)[nH]c3c(N)nc(OCCOC)nc32)cc1 [SZU-136, reference compound]	370	–
COCCOc1nc(N)c2[nH]c(=O)n(Cc3ccc(CNC(=O)CCC(=O)NC(CCCCc4cn(CCOCCOCCOc5c(OC)cc(/C=C/C(=O)N6CCC=CC6=O)cc5OC)nn4)C(=O)O)cc3)c2n1 (stereo not shown) [SZU-191]	100	–
C=C(CC(=O)OC)C(=O)NCc1ccc(Cn2c(=O)[nH]c3c(N)nc(OCCOC)nc32)cc1 [SZU-275]	1	–
